Drawing on article PMC12106687 (Nature Communications, 2025), this text covers RH/L for 1 compound.

This experiment has as its target HECTD1 (Homo sapiens, UniProt Q9ULT8). As to the kind of experiment: in-cell competitive QTRP. As to conditions: covalent; C1368; […], […] h in HEK293T cells. It counts as biochemical.

Sequence of HECTD1 (Q9ULT8 whole entry): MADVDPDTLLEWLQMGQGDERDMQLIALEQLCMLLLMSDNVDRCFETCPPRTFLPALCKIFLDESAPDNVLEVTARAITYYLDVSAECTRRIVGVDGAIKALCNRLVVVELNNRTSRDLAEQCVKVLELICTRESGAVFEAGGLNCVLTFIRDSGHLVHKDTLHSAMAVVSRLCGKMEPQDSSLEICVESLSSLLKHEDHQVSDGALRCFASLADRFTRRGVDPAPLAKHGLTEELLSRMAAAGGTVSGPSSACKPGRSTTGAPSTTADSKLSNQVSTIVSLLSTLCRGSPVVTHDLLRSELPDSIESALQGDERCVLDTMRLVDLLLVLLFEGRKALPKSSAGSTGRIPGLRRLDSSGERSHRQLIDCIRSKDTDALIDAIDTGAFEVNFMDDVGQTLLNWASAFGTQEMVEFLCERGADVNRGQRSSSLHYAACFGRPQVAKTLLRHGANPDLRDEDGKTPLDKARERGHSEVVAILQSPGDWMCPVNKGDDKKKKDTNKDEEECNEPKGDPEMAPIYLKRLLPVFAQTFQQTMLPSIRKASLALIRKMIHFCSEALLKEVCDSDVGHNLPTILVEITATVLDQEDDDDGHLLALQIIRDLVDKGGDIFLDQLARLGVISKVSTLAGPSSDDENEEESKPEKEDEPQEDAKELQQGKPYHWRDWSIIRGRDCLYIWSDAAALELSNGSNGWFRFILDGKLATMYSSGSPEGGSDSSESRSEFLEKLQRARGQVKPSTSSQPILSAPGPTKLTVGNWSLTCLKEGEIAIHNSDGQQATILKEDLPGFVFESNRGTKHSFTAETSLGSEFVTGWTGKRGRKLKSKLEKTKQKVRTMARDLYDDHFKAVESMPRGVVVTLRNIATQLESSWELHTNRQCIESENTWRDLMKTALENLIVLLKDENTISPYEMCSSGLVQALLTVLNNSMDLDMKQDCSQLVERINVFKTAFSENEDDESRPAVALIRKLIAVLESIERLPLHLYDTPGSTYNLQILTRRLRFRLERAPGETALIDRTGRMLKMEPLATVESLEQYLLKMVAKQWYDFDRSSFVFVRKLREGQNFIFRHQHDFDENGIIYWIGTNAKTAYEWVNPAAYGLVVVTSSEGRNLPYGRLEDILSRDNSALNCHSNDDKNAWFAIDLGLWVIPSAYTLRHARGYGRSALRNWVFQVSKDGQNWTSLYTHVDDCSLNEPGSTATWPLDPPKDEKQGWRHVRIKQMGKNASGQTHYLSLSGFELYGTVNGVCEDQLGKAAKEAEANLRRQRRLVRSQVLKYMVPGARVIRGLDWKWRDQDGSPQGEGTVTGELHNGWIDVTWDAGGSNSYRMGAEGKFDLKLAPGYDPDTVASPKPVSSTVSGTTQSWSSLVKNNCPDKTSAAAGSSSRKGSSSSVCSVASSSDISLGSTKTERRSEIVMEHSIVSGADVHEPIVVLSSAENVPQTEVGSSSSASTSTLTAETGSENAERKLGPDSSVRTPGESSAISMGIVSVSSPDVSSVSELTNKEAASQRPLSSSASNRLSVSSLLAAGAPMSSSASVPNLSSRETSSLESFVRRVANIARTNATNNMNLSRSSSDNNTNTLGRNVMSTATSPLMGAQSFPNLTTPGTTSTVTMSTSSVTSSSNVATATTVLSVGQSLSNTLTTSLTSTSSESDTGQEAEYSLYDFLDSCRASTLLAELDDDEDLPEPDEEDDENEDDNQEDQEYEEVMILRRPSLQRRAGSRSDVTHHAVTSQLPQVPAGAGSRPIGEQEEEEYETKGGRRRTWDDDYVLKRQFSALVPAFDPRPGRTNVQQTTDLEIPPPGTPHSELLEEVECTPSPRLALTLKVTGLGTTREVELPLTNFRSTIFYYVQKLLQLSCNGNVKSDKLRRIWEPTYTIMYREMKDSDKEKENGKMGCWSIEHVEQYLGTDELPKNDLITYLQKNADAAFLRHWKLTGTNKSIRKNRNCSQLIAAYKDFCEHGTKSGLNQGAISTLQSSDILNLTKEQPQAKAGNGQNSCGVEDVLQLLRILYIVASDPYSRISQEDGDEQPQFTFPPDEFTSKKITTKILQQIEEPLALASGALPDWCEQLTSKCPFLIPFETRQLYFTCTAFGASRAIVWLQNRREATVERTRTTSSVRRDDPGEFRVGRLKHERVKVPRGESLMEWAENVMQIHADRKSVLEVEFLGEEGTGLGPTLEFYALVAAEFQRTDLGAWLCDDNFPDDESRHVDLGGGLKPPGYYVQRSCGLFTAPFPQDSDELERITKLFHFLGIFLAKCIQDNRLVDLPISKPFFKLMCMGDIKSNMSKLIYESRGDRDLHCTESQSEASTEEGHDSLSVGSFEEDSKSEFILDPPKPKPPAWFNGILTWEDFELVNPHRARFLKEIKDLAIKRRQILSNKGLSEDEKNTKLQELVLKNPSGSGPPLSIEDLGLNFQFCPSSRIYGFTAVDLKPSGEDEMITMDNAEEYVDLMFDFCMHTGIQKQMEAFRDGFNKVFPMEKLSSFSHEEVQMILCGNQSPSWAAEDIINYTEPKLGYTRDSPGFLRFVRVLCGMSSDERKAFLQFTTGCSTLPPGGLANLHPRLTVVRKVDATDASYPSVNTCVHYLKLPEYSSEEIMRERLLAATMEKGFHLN

Regarding `C=C(CC)C(=O)c1ccc(OCC(=O)O)c(Cl)c1Cl` [etacrynic acid], the RH/L result is “the etacrynic acid-engaged C1368 of HECTD1 is spatially distant from the active site”.
